Active and inactive are the calls of the source.
Legend:
[1] = biological target: Cytochrome P450 2C9 (Homo sapiens, UniProt P11712)
[2] = biological target: Neurotensin receptor type 1 (Homo sapiens, UniProt P30989); type: functional;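 further: Image-based confirmatory dose-response assay measuring agonist activity at NTR1; NTR1-expressing U2OS osteosarcoma cells imaged for beta-arrestin GFP spot formation; agonist potency where compounds increase beta-arrestin recruitment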
[3] = biological target: Cytochrome P450 2C19 (Homo sapiens, UniProt P33261); experiment: Cytochrome panel assay with activity outcomes. Panel member name: p450-cyp2c19 Compounds with AC50 equal or less than 10 uM are considered active; type: functional; details: read-out: AC50
Chain of Cytochrome P450 2C19 (P33261 whole entry): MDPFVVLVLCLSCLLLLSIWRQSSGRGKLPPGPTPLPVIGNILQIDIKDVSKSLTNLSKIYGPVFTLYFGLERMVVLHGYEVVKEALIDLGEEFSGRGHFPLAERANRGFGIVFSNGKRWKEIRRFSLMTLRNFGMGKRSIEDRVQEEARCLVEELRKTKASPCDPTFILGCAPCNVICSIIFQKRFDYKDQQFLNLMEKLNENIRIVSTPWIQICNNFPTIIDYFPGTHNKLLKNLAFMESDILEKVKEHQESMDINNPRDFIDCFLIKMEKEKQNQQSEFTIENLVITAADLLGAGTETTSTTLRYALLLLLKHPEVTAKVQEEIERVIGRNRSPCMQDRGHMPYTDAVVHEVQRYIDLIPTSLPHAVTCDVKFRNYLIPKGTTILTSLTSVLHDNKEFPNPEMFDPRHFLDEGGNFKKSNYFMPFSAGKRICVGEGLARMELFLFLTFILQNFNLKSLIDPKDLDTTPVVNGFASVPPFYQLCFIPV

[4] = biological target: T1, Cytochrome P450 1A2 (Homo sapiens, UniProt P05177);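 further: PubChem cytochrome P450 panel assay, CYP1A2 panel member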
T1 sequence (P05177 whole entry): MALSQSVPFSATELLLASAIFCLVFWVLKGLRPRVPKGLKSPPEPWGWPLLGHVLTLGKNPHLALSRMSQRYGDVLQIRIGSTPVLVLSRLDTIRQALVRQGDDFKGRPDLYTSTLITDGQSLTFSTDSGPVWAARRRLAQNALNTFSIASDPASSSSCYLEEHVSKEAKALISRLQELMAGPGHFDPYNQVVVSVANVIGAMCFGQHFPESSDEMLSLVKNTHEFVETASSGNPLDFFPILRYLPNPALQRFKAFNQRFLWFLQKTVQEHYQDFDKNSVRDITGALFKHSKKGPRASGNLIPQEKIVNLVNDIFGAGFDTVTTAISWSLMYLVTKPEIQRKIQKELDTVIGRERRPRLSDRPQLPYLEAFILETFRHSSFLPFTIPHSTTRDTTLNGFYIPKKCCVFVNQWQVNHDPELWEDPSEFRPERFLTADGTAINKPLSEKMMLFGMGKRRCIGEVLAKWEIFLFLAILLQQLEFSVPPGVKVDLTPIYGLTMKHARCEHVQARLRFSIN

[5] = inhibitors of intracellular T. cruzi replication, confirmation, NIH3T3 host cells, beta-gal luminescence (AID 2044); type: functional, cell-based;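 further: intracellular parasites grown in NIH/3T3 mouse fibroblasts as host cells; luminescent beta-galactosidase reporter signal from transgenic T. cruzi replicating inside host cells; inhibitors lower the luminescence signal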
[6] = cytotoxicity toward NIH3T3 fibroblasts, dose response, counter-screen, cell-based, ATP luminescence, mouse fibroblasts (AID 2010); type: functional;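 further: cells exposed to compound for about 90 hours before reading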
[7] = biological target: T2, Mucolipin-3 (Homo sapiens, UniProt Q8TDD5); experiment: Dose response cell-based high-throughput screening assay for agonists of the transient receptor potential channel ML3 (TRPML3). [Related pubchem assays: 1526, 1424, 1448 ]; type: functional
T2 sequence (Q8TDD5 whole entry): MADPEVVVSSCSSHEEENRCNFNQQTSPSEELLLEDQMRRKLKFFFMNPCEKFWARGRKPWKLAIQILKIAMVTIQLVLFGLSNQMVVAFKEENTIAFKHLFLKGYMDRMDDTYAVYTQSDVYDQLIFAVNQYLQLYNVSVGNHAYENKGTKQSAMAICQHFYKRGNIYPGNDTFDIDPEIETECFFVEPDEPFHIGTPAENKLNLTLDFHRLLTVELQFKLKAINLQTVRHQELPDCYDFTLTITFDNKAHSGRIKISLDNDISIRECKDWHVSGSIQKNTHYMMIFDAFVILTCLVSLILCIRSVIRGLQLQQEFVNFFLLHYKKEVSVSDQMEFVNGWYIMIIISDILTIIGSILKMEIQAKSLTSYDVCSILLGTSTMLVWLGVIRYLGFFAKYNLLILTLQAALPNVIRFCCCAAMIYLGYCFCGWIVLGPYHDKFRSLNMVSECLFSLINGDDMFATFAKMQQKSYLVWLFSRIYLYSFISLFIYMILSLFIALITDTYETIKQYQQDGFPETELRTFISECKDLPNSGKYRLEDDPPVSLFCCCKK

[8] = biological target: Ion channel NompC (Danio rerio, UniProt Q7T1G6); experiment: Fluorescence counterscreen assay for TRPML3 agonists: dose response cell-based high-throughput screening assay to identify agonists of the transient receptor potential channel N1 (TRPN1). [Related pubchem assays: 1526, 1424, 1448 ]; type: functional
Chain of Ion channel NompC (Q7T1G6 whole entry): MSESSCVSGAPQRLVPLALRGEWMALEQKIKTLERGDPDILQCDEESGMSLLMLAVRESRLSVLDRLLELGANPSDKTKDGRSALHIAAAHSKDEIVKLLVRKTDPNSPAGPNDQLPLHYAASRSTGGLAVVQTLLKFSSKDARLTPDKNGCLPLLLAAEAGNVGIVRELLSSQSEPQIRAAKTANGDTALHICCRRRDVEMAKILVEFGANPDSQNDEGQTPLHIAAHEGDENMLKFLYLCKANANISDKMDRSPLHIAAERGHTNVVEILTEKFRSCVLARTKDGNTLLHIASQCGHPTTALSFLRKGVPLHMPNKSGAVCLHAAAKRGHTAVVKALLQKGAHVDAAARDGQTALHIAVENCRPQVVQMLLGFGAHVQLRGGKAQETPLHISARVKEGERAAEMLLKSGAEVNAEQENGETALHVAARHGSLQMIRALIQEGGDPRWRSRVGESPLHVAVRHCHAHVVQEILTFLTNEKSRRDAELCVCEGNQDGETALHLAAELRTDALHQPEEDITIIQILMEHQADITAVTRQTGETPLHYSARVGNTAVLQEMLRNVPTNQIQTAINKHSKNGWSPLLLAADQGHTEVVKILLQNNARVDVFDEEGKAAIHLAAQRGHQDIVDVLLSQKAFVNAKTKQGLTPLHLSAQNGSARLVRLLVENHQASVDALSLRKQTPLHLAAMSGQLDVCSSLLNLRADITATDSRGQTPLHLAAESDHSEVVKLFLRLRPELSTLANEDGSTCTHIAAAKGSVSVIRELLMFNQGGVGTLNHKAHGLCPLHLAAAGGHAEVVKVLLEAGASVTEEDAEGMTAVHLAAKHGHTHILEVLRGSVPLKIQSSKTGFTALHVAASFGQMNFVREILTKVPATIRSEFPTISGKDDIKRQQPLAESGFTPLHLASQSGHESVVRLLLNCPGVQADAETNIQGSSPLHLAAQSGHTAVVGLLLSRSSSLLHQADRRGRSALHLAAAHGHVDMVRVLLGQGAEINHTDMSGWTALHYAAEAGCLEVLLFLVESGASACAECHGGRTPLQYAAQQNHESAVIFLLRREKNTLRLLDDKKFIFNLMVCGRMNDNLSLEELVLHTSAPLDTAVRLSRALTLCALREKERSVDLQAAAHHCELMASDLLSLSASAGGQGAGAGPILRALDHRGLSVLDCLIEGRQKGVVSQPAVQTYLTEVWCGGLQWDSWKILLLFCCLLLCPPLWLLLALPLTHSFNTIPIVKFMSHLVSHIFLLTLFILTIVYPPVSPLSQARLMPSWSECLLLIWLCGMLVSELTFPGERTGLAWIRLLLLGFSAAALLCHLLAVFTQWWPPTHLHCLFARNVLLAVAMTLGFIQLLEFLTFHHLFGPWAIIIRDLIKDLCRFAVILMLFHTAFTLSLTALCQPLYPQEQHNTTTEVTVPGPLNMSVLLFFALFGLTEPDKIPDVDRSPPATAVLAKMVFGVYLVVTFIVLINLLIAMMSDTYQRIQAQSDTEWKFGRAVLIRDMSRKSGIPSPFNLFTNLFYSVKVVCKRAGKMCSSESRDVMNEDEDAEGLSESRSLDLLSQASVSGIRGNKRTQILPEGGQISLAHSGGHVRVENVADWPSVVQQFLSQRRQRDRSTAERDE

[9] = biological target: DNA dC->dU-editing enzyme APOBEC-3G (Homo sapiens, UniProt Q9HC16); type: functional;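 further: Dose-response counterscreen measuring inhibition of APOBEC3G DNA deaminase activity, run while confirming APOBEC3A inhibitors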
Chain of DNA dC->dU-editing enzyme APOBEC-3G (Q9HC16 whole entry): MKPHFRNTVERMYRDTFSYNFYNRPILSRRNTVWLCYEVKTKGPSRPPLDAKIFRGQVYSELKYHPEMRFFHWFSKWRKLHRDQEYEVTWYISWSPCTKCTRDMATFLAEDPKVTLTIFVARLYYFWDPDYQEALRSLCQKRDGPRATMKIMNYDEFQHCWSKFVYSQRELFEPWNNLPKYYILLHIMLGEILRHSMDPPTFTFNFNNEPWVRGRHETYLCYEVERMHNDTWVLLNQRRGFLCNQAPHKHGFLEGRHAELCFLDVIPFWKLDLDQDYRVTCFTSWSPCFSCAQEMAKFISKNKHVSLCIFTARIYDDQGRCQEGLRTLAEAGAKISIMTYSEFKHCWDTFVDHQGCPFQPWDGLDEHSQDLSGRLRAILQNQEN

[10] = biological target: DNA dC->dU-editing enzyme APOBEC-3A (Homo sapiens, UniProt P31941); experiment: Dose Response confirmation of small molecule APOBEC3A DNA Deaminase Inhibitors via a fluorescence-based single-stranded DNA deaminase assay. [Related pubchem assays (depositor defined):AID493011, AID493024]; type: functional
Chain of DNA dC->dU-editing enzyme APOBEC-3A (P31941 whole entry): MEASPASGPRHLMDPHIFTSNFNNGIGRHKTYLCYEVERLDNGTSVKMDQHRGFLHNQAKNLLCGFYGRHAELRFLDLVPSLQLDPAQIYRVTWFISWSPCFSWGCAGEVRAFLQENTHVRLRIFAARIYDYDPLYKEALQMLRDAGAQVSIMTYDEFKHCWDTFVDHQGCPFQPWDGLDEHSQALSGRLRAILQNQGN

[11] = biological target: T3, Short transient receptor potential channel 4 (Mus musculus, UniProt Q9QUQ5); experiment: TRPC4 positive allosteric modulators, dose response, cell-based, HEK293 TRPC4/mu-opioid, Fluo-4 calcium, EC20 DAMGO (AID 434941); type: functional
T3 sequence (Q9QUQ5 whole entry): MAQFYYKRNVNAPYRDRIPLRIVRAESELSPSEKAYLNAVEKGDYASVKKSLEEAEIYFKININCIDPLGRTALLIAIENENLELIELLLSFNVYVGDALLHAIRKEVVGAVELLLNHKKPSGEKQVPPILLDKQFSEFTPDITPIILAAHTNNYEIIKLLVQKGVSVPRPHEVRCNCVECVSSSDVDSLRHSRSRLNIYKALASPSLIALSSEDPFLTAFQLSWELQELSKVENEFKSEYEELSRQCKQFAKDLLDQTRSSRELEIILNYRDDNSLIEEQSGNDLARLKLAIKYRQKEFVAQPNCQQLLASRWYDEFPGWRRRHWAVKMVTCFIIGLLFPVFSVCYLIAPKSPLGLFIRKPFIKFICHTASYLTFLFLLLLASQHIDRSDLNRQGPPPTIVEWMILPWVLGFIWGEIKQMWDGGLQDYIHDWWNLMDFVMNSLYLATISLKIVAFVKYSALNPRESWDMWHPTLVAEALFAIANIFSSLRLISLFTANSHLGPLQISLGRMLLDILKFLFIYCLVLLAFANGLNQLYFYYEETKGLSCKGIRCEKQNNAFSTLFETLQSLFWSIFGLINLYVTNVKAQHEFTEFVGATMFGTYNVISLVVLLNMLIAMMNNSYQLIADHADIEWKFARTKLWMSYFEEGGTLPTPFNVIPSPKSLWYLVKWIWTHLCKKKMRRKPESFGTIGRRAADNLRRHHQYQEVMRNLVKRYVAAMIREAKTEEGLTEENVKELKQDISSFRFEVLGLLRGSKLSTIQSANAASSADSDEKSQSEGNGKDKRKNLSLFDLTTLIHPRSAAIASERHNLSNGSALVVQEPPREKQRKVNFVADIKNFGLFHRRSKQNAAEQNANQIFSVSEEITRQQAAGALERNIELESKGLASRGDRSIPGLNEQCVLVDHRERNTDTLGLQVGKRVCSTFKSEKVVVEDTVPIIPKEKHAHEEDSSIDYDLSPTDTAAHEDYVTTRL

[12] = biological target: T4, Luciferin 4-monooxygenase (Photinus pyralis, UniProt P08659); experiment: firefly luciferase enzyme inhibitors, dose response, biochemical, luminescence (AID 1891)
T4 sequence (P08659 whole entry): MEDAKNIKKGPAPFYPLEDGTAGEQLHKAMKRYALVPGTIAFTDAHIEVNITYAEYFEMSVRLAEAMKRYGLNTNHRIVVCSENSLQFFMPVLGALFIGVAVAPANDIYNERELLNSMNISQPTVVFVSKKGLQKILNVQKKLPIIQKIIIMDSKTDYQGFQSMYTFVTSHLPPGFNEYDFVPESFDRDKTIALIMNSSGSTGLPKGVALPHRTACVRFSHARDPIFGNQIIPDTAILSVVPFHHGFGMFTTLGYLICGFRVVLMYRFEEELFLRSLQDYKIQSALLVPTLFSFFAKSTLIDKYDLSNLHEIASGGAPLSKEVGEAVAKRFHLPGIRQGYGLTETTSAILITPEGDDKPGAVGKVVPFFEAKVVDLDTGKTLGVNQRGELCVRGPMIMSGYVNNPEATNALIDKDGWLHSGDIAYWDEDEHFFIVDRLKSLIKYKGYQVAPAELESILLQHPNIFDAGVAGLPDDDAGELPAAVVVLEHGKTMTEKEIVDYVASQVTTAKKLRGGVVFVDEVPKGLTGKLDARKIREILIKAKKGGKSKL

[13] = Luminescence Cell-Based Dose Confirmation HTS to Identify Inhibitors of Platelet Dense Granule Release. [Related pubchem assays: 1663 (Primary HTS), 1678 (Summary of Project)]; type: functional
[14] = biological target: T4, Luciferin 4-monooxygenase; experiment: Counter Screen for Luciferase-based Assay Positives. [Related pubchem assays: 620, 618, 411 ]
[15] = tested on: HT-1080; experiment: cytotoxicity in HT1080 fibrosarcoma cells, cell-based, fluorescence readout (AID 620); type: functional; details: Homo sapiens
[16] = A Cell Based Secondary Assay To Explore Cytotoxicity of Compounds that Sensitize Mycobacterium Tuberculosis to Beta-Lactam Antibiotics.; type: functional
[17] = biological target: Alkaline phosphatase, placental type (Homo sapiens, UniProt P05187); experiment: PLAP enzyme inhibitors, confirmation, biochemical, luminescence (AID 1512); type: functional
Chain of Alkaline phosphatase, placental type (P05187 whole entry): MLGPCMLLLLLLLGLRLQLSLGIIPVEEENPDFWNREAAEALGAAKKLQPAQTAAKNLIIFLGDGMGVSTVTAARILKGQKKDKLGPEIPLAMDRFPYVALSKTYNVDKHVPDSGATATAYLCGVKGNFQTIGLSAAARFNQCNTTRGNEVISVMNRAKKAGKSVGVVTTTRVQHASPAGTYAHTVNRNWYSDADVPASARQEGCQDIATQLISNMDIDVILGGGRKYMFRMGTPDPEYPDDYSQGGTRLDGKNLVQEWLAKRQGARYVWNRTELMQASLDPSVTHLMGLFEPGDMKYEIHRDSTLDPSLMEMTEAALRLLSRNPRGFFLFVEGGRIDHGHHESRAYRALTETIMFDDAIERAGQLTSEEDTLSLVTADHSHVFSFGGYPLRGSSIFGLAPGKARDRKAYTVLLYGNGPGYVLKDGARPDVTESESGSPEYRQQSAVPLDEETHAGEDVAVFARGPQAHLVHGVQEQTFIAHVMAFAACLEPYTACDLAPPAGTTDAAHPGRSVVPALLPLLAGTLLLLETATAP

Chain of Neurotensin receptor type 1 (P30989 whole entry): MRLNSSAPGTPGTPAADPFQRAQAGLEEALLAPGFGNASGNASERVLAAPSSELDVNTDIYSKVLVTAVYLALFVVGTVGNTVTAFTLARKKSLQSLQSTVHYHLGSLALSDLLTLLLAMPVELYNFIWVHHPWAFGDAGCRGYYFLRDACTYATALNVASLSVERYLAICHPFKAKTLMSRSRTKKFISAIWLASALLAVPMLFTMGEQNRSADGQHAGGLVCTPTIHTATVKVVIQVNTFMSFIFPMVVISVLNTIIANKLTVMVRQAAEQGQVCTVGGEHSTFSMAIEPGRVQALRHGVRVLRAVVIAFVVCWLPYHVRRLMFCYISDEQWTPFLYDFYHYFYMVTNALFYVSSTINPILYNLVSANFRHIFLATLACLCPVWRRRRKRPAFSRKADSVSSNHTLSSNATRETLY
Chain of Cytochrome P450 2C9 (P11712 whole entry): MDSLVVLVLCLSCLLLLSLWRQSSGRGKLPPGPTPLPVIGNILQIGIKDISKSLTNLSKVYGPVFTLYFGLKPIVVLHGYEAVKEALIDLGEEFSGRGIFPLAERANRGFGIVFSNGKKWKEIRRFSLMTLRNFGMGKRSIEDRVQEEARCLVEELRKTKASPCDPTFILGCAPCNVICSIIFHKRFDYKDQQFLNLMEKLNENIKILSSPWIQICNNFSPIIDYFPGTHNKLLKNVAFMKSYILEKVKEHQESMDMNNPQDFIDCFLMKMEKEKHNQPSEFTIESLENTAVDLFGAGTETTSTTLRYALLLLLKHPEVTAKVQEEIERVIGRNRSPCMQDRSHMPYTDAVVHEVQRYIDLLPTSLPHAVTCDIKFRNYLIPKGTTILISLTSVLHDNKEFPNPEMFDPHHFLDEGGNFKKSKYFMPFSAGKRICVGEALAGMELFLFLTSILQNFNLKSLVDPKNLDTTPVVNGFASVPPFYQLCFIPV

With Cc1cccc(N2C(=O)NC(=O)/C(=C\c3cnn(-c4ccccc4)c3)C2=O)c1 the AC50 [1] was 39.8 µM (inconclusive), the EC50 [2] was 13 µM (active) and the AC50 [3] was 39.8 µM (inconclusive). For the same compound, the AC50 [4] was 25.1 µM (inconclusive).
In the case of CCOc1ccc(S(=O)(=O)NC(C)(C)C)cc1-c1nc(O)c2c(n1)c(C(C)(C)C)nn2C, the EC50 [5] is reported as 1.26 µM (active), the EC50 [6] is reported as 8.45 µM (active) and the EC50 [7] is reported as 0.781 µM (active). The EC50 [8] was > 29.9 µM (not active).
In the case of C=CCNC1=N[C@@H](c2ccccc2)C(C(=O)OC)=C(C)N1CCOC, the IC50 [9] is reported as 6.15 µM (active) and the IC50 [10] is reported as 4.03 µM (active).
In the case of CN(C)CC1CCCCC1OC(=O)Cc1ccc(Cl)c([N+](=O)[O-])c1 (stereo not given), the IC50 [9] is reported as 4.69 µM (active) and the IC50 [10] is reported as 2.81 µM (active).
With C1CCN(c2nc(N3CCCC3)nc(N3CCNCC3)n2)C1 the EC50 [11] was 2.66 µM (active), the EC50 [12] was > 112 µM (not active) and the EC50 [13] was > 112 µM (not active).
In the case of CNc1nc(N2CCc3ccccc32)ncc1F, the EC50 [11] is reported as 0.75 µM (active).
With Cc1ccc(OCc2nc(-c3ccccn3)no2)c(Br)c1 the EC50 [14] was < 0.2 µM (active) and the EC50 [15] was > 50 µM (not active).
In the case of Cc1ccc(N=C(S)Nc2ncccc2C)c(C)c1, the CC50 [16] is reported as > 40 µM (active).
With CCN(CC(=O)Nc1cccc(F)c1)Cc1nc(O)c2ccccc2n1 the IC50 [17] was > 100 µM (inactive).

Reference: ChEMBL document CHEMBL1201862, “PubChem BioAssay data set” (2004)
